Assay results taken from patent US20240238425A1, “HSD17B13 Inhibitors and/or Degraders” (Pfizer Inc., priority 2022, published 2024).
Structures can show the parent of a compound that is named as a salt.

Tested on: HiBiT-HSD17β13 fusion protein (N-terminal HiBiT-tagged HSD17β13 isoform D) in Huh7 HiBiT-HSD17β13 OE cells
Experiment: Whole-cell Huh7-HSD17B13 HiBiT assay (degrader potency and maximal efficacy, luminescence readout)
Format: cell-based, human
Details: 24 hour incubation, geometric mean, * = geometric mean for all forms tested (parent and salt forms); for DC50: read-out: Huh7_HIBIT-HSD17β13_DC50 GMean DC50; for Huh7_HIBIT-HSD17β13_DC50 GMean Asymptote Maximum: max. concentration 1 μM
In short: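 Huh7 cells stably overexpressing N-terminal HiBiT-tagged HSD17β13 isoform D, clone matched to primary hepatocyte expression, were exposed to an 11-point, 1 in 3.162 dilution series (top 1 μM final) for 24 h at 37° C. Lytic HiBiT luminescence was normalised to DMSO and parental-cell controls; DC50 from four-parameter logistic fit, with CellTiter-Glo counter screen.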

Row | Structure (SMILES) | DC50 [nM] | Huh7_HIBIT-HSD17β13_DC50 GMean Asymptote Maximum [%]
1 | Cc1ccc(C(=O)N2CCC3(CC2)C[C@@H](N2CCN(c4ncc(-c5ccc6cn([C@H]7CC[C@H](CNC(=O)c8cc(F)c(O)c(F)c8F)CC7)nc6c5)cn4)CC2)CO3)cc1N1CCC(=O)NC1=O [Example 68, N-{[(1r,4r)-4-{6-[2-(4-{(3R)-8-[3-(2,4-dioxo-1,3-diazinan-1-yl)-4-methylbenzoyl]-1-oxa-8-azaspiro[4.5]decan-3-yl}piperazin-1-yl)pyrimidin-5-yl]-2H-indazol-2-yl}cyclohexyl]methyl}-2,3,5-trifluoro-4-hydroxybenzamide, trifluoroacetate salt] | 1.7 | 79
2 | O=C(O)C(F)(F)F.O=C1CCN(c2cnc3cc(CCCN4CCN(c5ncc(-c6ccc7cn(C8CCC(CNC(=O)c9cc(F)c(O)c(F)c9F)CC8)nc7c6)cn5)CC4)ccn23)C(=O)N1 (stereo not shown) [Example 19, N-{[(1r,4r)-4-{6-[2-(4-{3-[3-(2,4-Dioxo-1,3-diazinan-1-yl)imidazo[1,2-a]pyridin-7-yl]propyl}piperazin-1-yl)pyrimidin-5-yl]-2H-indazol-2-yl}cyclohexyl]methyl}-2,3,5-trifluoro-4-hydroxybenzamide, trifluoroacetate salt] | 0.73 | 82
3 | Cl.O=C1CCN(c2cnn3cc(CCCN4CCN(c5cnc(-c6ccc7cn([C@H]8CC[C@H](CNC(=O)c9cc(F)c(O)c(F)c9F)CC8)nc7c6)cn5)CC4)ccc23)C(=O)N1 [Example 10, N-{[(1r,4r)-4-{6-[5-(4-{3-[3-(2,4-Dioxo-1,3-diazinan-1-yl)pyrazolo[1,5-a]pyridin-6-yl]propyl}piperazin-1-yl)pyrazin-2-yl]-2H-indazol-2-yl}cyclohexyl]methyl}-2,3,5-trifluoro-4-hydroxybenzamide, hydrochloride salt] | 0.28 | 82
4 | Cl.Cn1c(=O)n(C2CCC(=O)NC2=O)c2cccc(CN3CCN(c4ncc(-c5ccc6cn([C@H]7CC[C@H](CNC(=O)c8cc(F)c(O)c(F)c8F)CC7)nc6c5)cn4)CC3)c21 (mixture of isomers) [Example 25, N-{[(1r,4r)-4-(6-{2-[4-({1-[(3RS)-2,6-dioxopiperidin-3-yl]-3-methyl-2-oxo-2,3-dihydro-1H-benzimidazol-4-yl}methyl)piperazin-1-yl]pyrimidin-5-yl}-2H-indazol-2-yl)cyclohexyl]methyl}-2,3,5-trifluoro-4-hydroxybenzamide, hydrochloride salt] | 0.85 | 84
5 | O=C1CCN(c2cnn3cc(CCCN4CC(F)(F)C5(C4)CN(c4ccc6cn([C@H]7CC[C@H](CNC(=O)c8cc(F)c(O)c(F)c8F)CC7)nc6c4)C5)ccc23)C(=O)N1 [Example 29, N-({(1r,4r)-4-[6-(6-{3-[3-(2,4-dioxo-1,3-diazinan-1-yl)pyrazolo[1,5-a]pyridin-6-yl]propyl}-8,8-difluoro-2,6-diazaspiro[3.4]octan-2-yl)-2H-indazol-2-yl]cyclohexyl}methyl)-2,3,5-trifluoro-4-hydroxybenzamide] | 1.9 | 80
6 | Cn1c(=O)n(C2CCC(=O)NC2=O)c2ccc(CCCN3Cc4cnc(-c5ccc6cn([C@H]7CC[C@H](CNC(=O)c8cc(F)c(O)c(F)c8F)CC7)nc6c5)cc4C3)cc21 (mixture of isomers) [Example 119, N-{[(1r,4r)-4-{6-[2-(3-{1-[(3RS)-2,6-dioxopiperidin-3-yl]-3-methyl-2-oxo-2,3-dihydro-1H-benzimidazol-5-yl}propyl)-2,3-dihydro-1H-pyrrolo[3,4-c]pyridin-6-yl]-2H-indazol-2-yl}cyclohexyl]methyl}-2,3,5-trifluoro-4-hydroxybenzamide, formate salt] | 0.28 | 75

Further compounds by falling DC50, results first:

Row | DC50 [nM] | Structure (SMILES) | Huh7_HIBIT-HSD17β13_DC50 GMean Asymptote Maximum [%]
7 | 1.5 | O=C1CCN(c2cnn3cc(CCCN4CCN(c5ccc6cn([C@H]7CC[C@H](CNC(=O)c8cc(F)c(O)c(F)c8F)CC7)nc6c5)CC4)ccc23)C(=O)N1 [Example 48, N-({(1r,4r)-4-[6-(4-{3-[3-(2,4-dioxo-1,3-diazinan-1-yl)pyrazolo[1,5-a]pyridin-6-yl]propyl}piperazin-1-yl)-2H-indazol-2-yl]cyclohexyl}methyl)-2,3,5-trifluoro-4-hydroxybenzamide, trifluoroacetate salt] | 74
8 | 1.1 | Cn1c(=O)n(C2CCC(=O)NC2=O)c2ccc(CCCCCC(=O)N3CCN(c4ccc5cn([C@H]6CC[C@H](CNC(=O)c7cc(F)c(O)c(F)c7F)CC6)nc5c4)CC3)cc21 (mixture of isomers) [Example 39, N-{[(1r,4r)-4-{6-[4-(6-{1-[(3RS)-2,6-dioxopiperidin-3-yl]-3-methyl-2-oxo-2,3-dihydro-1H-benzimidazol-5-yl}hexanoyl)piperazin-1-yl]-2H-indazol-2-yl}cyclohexyl]methyl}-2,3,5-trifluoro-4-hydroxybenzamide, trifluoroacetate salt] | 86
9 | 0.82 | Cn1c(=O)n(C2CCC(=O)NC2=O)c2ccc(CCCN3CCOC4(C3)CN(c3ccc5cn([C@H]6CC[C@H](CNC(=O)c7cc(F)c(O)c(F)c7F)CC6)nc5c3)C4)cc21 (mixture of isomers) [Example 98, N-{[(1r,4r)-4-{6-[8-(3-{1-[(3RS)-2,6-dioxopiperidin-3-yl]-3-methyl-2-oxo-2,3-dihydro-1H-benzimidazol-5-yl}propyl)-5-oxa-2,8-diazaspiro[3.5]nonan-2-yl]-2H-indazol-2-yl}cyclohexyl]methyl}-2,3,5-trifluoro-4-hydroxybenzamide, trifluoroacetate salt] | 78
10 | 0.38 | Cn1c(=O)n(C2CCC(=O)NC2=O)c2ccc(CCCN3CCN(c4nccc(-c5nc(C67CCC(CNC(=O)c8cc(F)c(O)c(F)c8F)(CC6)CC7)cs5)n4)CC3)cc21.O=CO (racemic) [Example 4, N-{[4-(2-{2-[4-(3-{1-[(3RS)-2,6-Dioxopiperidin-3-yl]-3-methyl-2-oxo-2,3-dihydro-1H-benzimidazol-5-yl}propyl)piperazin-1-yl]pyrimidin-4-yl}-1,3-thiazol-4-yl)bicyclo[2.2.2]octan-1-yl]methyl}-2,3,5-trifluoro-4-hydroxybenzamide, formate salt] | 84
11 | 0.37 | Cn1c(=O)n(C2CCC(=O)NC2=O)c2ccc(CCCN3CCN(c4nc(-c5nc([C@]67CC[C@](CNC(=O)c8cc(F)c(O)c(F)c8F)(CC6)CC7)no5)cc(N5CCCC5)n4)CC3)cc21 (mixture of isomers) [Example 127, N-{[4-(5-{2-[4-(3-{1-[(3RS)-2,6-dioxopiperidin-3-yl]-3-methyl-2-oxo-2,3-dihydro-1H-benzimidazol-5-yl}propyl)piperazin-1-yl]-6-(pyrrolidin-1-yl)pyrimidin-4-yl}-1,2,4-oxadiazol-3-yl)bicyclo[2.2.2]octan-1-yl]methyl}-2,3,5-trifluoro-4-hydroxybenzamide, trifluoroacetate salt] | 79
